Measurements taken from ChEMBL document CHEMBL4321794, “Discovery and Optimization of 2-Arylquinazolin-4-ones into a Potent and Selective Tankyrase Inhibitor Modulating Wnt Pathway Activity” (J Med Chem, 2019).
Calls of active or inactive are those of the source. The calls are words filed in the database; no cut-off is given here.

What was measured:
Mus musculus [1] = assay: Ex vivo inhibition of tankyrase 1/2 in human DLD1 cells xenografted in immunodeficient athymic nude mouse assessed as increase in tankyrase level in tumor lysates at 10 mg/kg, po administered via gavage by luminex based bead assay; format: functional, organism-based; settings: Neoplasm, Lysate, TDE = time-dependent effect
[2] = Time at which free-drug concentration exceeds in vitro cellular EC50 for inhibition of tankyrase 1/2 in human DLD1 cells assessed as increase in axin2 accumulation in mouse xenografted with human DLD1 at 10 mg/kg, po administered via gavage; format: organism-based; settings: in vivo
[3] = target: T1, Protein mono-ADP-ribosyltransferase PARP8 (Homo sapiens, UniProt Q8N3A8); assay: Inhibition of human recombinant PARP8 by chemiluminescence method
T1 sequence (Q8N3A8 whole entry): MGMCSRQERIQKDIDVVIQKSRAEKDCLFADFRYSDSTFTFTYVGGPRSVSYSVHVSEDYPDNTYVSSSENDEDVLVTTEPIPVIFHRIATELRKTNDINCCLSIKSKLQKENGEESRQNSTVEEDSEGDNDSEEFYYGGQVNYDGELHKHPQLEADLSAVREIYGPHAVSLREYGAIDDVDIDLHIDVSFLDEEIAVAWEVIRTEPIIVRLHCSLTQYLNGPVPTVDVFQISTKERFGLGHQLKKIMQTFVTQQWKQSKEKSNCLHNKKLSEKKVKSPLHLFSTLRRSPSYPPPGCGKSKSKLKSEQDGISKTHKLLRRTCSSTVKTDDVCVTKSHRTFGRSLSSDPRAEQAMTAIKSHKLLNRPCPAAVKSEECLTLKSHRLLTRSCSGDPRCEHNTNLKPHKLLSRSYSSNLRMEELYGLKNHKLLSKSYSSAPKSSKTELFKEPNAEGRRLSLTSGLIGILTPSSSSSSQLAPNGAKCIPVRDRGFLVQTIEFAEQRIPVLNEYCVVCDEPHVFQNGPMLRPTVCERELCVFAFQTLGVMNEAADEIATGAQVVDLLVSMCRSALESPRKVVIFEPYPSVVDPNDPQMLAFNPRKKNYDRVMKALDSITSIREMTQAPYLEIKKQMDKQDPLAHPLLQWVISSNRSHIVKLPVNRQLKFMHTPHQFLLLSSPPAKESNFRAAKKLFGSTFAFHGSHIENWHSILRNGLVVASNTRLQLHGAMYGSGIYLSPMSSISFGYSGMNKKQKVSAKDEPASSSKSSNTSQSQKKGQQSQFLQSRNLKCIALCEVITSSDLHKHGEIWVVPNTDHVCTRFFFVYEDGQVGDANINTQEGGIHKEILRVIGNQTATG

[4] = target: T2, Protein mono-ADP-ribosyltransferase PARP15 (Homo sapiens, UniProt Q460N3); assay: Inhibition of human N-terminal GST-tagged PARP15 (221 to 444 residues) expressed in Escherichia coli using biotinylated substrate by chemiluminescence method
T2 sequence (Q460N3 whole entry): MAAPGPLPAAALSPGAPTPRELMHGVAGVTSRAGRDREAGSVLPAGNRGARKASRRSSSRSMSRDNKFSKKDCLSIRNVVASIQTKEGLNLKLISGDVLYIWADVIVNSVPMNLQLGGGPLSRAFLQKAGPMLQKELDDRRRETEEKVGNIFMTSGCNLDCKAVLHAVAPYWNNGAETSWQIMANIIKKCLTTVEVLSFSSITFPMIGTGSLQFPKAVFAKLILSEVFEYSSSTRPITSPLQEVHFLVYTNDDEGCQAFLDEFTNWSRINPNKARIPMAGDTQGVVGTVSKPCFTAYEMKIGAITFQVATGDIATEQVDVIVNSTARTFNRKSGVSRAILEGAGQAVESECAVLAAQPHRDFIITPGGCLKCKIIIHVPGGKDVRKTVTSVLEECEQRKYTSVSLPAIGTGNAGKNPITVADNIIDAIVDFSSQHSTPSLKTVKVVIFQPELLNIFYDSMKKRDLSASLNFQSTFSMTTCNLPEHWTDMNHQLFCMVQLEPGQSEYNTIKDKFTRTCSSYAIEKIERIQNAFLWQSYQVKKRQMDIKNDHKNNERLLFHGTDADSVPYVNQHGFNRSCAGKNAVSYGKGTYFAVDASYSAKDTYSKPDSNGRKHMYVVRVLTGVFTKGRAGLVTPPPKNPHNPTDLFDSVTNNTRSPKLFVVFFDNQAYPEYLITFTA

[5] = target: T3, Poly [ADP-ribose] polymerase 1 (Homo sapiens, UniProt P09874); assay: Inhibition of recombinant human full-length Myc/His-tagged Parp-1 expressed in baculovirus infected Sf21 insect cells assessed as reduction in auto-PARsylation using activated DNA as substrate incubated for 150 mins in presence of NAD and bio-NAD as co-substrate by TR-FRET assay
T3 sequence (P09874 whole entry, the tested form may be a part): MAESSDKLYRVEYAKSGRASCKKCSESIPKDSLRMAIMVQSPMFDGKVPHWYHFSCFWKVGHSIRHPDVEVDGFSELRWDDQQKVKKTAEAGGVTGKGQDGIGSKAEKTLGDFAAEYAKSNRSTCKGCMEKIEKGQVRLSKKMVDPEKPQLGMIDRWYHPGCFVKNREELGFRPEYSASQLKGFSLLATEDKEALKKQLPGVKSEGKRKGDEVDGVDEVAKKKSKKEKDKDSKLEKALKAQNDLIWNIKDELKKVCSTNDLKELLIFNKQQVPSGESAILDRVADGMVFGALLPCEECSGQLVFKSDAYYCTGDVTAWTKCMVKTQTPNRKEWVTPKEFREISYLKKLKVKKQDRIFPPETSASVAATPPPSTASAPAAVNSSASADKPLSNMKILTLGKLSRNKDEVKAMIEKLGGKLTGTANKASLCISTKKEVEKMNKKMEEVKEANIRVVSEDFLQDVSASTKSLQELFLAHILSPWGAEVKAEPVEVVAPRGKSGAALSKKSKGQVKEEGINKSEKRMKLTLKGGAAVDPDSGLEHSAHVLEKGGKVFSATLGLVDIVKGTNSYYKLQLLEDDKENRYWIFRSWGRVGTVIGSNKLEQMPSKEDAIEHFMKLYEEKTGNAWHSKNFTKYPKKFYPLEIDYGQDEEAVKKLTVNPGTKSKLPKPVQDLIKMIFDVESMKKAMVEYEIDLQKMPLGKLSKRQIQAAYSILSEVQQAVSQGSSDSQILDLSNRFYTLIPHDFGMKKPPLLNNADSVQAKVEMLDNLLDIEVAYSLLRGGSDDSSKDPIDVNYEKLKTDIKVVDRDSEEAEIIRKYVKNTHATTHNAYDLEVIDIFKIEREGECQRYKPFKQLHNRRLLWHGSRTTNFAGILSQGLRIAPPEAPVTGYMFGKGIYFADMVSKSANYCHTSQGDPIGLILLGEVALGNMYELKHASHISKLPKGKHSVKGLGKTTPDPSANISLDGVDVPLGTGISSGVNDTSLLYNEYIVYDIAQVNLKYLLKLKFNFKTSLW

[6] = target: T4, Protein mono-ADP-ribosyltransferase TIPARP (Homo sapiens, UniProt Q7Z3E1); assay: Inhibition of N-terminal FLAG-tagged recombinant human PARP7 (400 to 657 residues) expressed in Baculovirus infected Sf9 cells using biotinylated substrate after 1 hr by chemiluminescence method
T4 sequence (Q7Z3E1 whole entry): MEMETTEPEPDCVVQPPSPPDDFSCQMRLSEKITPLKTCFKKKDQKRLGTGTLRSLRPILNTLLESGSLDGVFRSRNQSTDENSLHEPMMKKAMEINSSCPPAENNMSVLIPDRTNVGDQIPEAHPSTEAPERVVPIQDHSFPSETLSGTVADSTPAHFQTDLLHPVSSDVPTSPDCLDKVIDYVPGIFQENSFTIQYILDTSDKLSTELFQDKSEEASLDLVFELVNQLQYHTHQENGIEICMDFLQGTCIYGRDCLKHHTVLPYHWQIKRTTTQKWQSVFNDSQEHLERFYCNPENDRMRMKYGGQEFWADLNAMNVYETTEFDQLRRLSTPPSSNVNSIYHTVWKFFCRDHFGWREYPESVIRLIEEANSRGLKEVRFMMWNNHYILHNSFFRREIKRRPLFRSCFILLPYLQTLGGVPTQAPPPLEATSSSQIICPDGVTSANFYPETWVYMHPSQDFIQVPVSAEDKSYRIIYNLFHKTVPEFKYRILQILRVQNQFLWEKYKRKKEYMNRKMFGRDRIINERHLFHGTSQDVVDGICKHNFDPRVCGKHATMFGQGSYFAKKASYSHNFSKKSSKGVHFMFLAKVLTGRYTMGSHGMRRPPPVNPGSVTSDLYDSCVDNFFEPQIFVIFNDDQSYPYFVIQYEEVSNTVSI

[7] = target: Protein mono-ADP-ribosyltransferase PARP6 (Homo sapiens, UniProt Q2NL67); assay: Inhibition of N-terminal GST-tagged recombinant human full length PARP6 expressed in Baculovirus infected Sf9 cells using biotinylated substrate after 1 hr by chemiluminescence method
Protein mono-ADP-ribosyltransferase PARP6, sequence (Q2NL67 whole entry): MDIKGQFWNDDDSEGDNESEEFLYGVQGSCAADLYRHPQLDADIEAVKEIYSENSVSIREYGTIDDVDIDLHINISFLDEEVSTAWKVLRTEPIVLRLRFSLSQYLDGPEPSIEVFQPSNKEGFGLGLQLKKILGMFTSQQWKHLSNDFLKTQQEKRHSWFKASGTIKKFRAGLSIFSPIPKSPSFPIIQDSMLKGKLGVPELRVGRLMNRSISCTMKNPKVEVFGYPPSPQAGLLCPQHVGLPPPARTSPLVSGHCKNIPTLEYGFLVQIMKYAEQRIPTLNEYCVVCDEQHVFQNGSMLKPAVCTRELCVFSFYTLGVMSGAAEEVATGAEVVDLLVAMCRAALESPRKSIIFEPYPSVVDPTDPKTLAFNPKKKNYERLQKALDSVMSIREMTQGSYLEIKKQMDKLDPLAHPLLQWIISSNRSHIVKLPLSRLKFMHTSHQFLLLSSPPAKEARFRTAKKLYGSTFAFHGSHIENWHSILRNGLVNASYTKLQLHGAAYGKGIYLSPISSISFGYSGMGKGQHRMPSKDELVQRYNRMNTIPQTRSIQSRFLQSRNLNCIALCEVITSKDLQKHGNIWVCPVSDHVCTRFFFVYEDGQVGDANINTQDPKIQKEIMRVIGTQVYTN

[8] = target: T3, Poly [ADP-ribose] polymerase 1; assay: Inhibition of N-terminal GST-tagged recombinant full length human PARP1 expressed in Baculovirus infected Sf9 cells using biotinylated substrate after 1 hr by chemiluminescence method
Mus musculus [9] = assay: Ex vivo inhibition of tankyrase 1/2 in human DLD1 cells xenografted in immunodeficient athymic nude mouse assessed as increase in tankyrase level in tumor lysates at 10 mg/kg, po administered via gavage measured after 12 hrs by luminex based bead assay; format: functional, organism-based; settings: Neoplasm, Lysate
[10] = Apparent permeability across apical to basolateral side in human Caco2 cells at 1 uM after 2 hrs by LC-MS/MS analysis; format: ADME, cell-based; settings: Caco-2

- T>fEC50 [2]: >= 12 hr
- IC50 [3]: > 10 µM
- IC50 [4]: > 10 µM
- IC50 [5]: 0.782 µM
- IC50 [6]: > 10 µM
- IC50 [7]: > 10 µM
- IC50 [8]: 0.71 µM
- Papp A→B at 2 h, 1 µM [10]: 40 ×10⁻⁶ cm/s
SMILES: CC(C)(O)c1ccc(-c2nc3c(F)cc(F)cc3c(=O)[nH]2)cc1
- inhibition (Mus musculus [1]): Tde
- inhibition (Mus musculus [9]): Active
